Tests used:
[1] = test system: 308 kinases; assay: Kinase activity profiling, Millipore KinaseProfiler; type: biochemical
[2] = test system: HCT-116 cells; assay: Western blot phosphoserine 10-histone H3; type: cell-based; details: 10 μM
Method: Finally, HCT-116 cells were treated with 10 μM of DMSO, barasertib, GSK1070916, MLN8054, BRD-7880, or tozasertib. Cells lysates were probed on Western blot using antibodies (diluted 1:1000) to histone H3 (Abcam cat. no. 24834), phosphoserine 10-histone H3 (Cell Signaling Technology cat no. 3377SS), aurora kinase B (Millipore cat. no. 04-1036), or beta-actin (Santa Cruz Biotechnology cat. no. sc-47778) and detected using a LI-COR Odyssey analyzer.

[3] = target: T1, ABL1(T315I)---phosphorylated (Homo sapiens, UniProt P00519, T315I); assay: DiscoveRx KinomeScan binding; details: Entrez ABL1
T1 construct: purchased DiscoveRx (KINOMEscan scanEDGE panel)

[4] = target: T2, ABL1---nonphosphorylated (Homo sapiens, UniProt P00519); assay: DiscoveRx KinomeScan binding; details: Entrez ABL1
T2 construct: purchased DiscoveRx (KINOMEscan scanEDGE panel)

[5] = target: T3, CDK11 (Homo sapiens, UniProt Q9BWU1); assay: DiscoveRx KinomeScan binding; details: Entrez CDK19
T3 construct: purchased DiscoveRx (KINOMEscan scanEDGE panel)

[6] = target: T4, CDK7 (Homo sapiens, UniProt P50613); assay: DiscoveRx KinomeScan binding
T4 construct: purchased DiscoveRx (KINOMEscan scanEDGE panel)

[7] = target: T5, CDK9 (Homo sapiens, UniProt P50750); assay: DiscoveRx KinomeScan binding
T5 construct: purchased DiscoveRx scanEDGE panel

[8] = target: T6, CHEK1 (Homo sapiens, UniProt O14757); assay: DiscoveRx KinomeScan binding
T6 construct: purchased DiscoveRx scanEDGE panel

[9] = target: T7, CSNK1G2 (Homo sapiens, UniProt P78368); assay: DiscoveRx KinomeScan binding
T7 construct: purchased DiscoveRx scanEDGE panel

[10] = target: T8, EGFR(L858R) (Homo sapiens, UniProt P00533, L858R); assay: DiscoveRx KinomeScan binding
T8 construct: purchased DiscoveRx scanEDGE panel

[11] = target: T9, ERBB2 (Homo sapiens, UniProt P04626); assay: DiscoveRx KinomeScan binding
T9 construct: purchased DiscoveRx scanEDGE panel

[12] = target: T10, ERK1 (Homo sapiens, UniProt P27361); assay: DiscoveRx KinomeScan binding; details: Entrez MAPK3
T10 construct: purchased DiscoveRx scanEDGE panel

[13] = target: T11, FGFR2 (Homo sapiens, UniProt P21802); assay: DiscoveRx KinomeScan binding
T11 construct: purchased DiscoveRx scanEDGE panel

[14] = target: T12, GSK3B (Homo sapiens, UniProt P49841); assay: DiscoveRx KinomeScan binding
T12 construct: purchased DiscoveRx scanEDGE panel

[15] = target: T13, IGF1R (Homo sapiens, UniProt P08069); assay: DiscoveRx KinomeScan binding
T13 construct: purchased DiscoveRx scanEDGE panel

[16] = target: T14, IKK---beta (Homo sapiens, UniProt O14920); assay: DiscoveRx KinomeScan binding; details: Entrez IKBKB
T14 construct: purchased DiscoveRx scanEDGE panel

[17] = target: T15, JAK2(JH1domain---catalytic) (Homo sapiens, UniProt O60674); assay: DiscoveRx KinomeScan binding
T15 construct: JAK2(JH1domain---catalytic); purchased DiscoveRx scanEDGE panel

[18] = target: T16, JNK1 (Homo sapiens, UniProt P45983); assay: DiscoveRx KinomeScan binding; details: Entrez MAPK8
T16 construct: purchased DiscoveRx scanEDGE panel

[19] = target: T17, KIT (Homo sapiens, UniProt P10721); assay: DiscoveRx KinomeScan binding
T17 construct: purchased DiscoveRx scanEDGE panel (KinomeScan)

[20] = target: T18, LKB1 (Homo sapiens, UniProt Q15831); assay: DiscoveRx KinomeScan binding; details: Entrez STK11
T18 construct: purchased DiscoveRx scanEDGE panel (KinomeScan)

[21] = target: T19, MEK1 (Homo sapiens, UniProt Q02750); assay: DiscoveRx KinomeScan binding; details: Entrez MAP2K1
T19 construct: purchased DiscoveRx scanEDGE panel (KinomeScan)

[22] = target: T20, MET (Homo sapiens, UniProt P08581); assay: DiscoveRx KinomeScan binding
T20 construct: purchased DiscoveRx scanEDGE panel (KinomeScan)

[23] = target: T21, PAK1 (Homo sapiens, UniProt Q13153); assay: DiscoveRx KinomeScan binding
T21 construct: purchased DiscoveRx scanEDGE panel (KinomeScan)

[24] = target: T22, PCTK1 (Homo sapiens, UniProt Q00536); assay: DiscoveRx KinomeScan binding; details: Entrez CDK16
T22 construct: purchased DiscoveRx scanEDGE panel (KinomeScan)

[25] = target: T23, PIK3CA (Homo sapiens, UniProt P42336); assay: DiscoveRx KinomeScan binding
T23 construct: purchased DiscoveRx scanEDGE panel

[26] = target: T24, PIK3CG (Homo sapiens, UniProt P48736); assay: DiscoveRx KinomeScan binding
T24 construct: purchased DiscoveRx scanEDGE panel

[27] = target: T25, PIM2 (Homo sapiens, UniProt Q9P1W9); assay: DiscoveRx KinomeScan binding
T25 construct: purchased DiscoveRx scanEDGE panel

[28] = target: T26, PLK3 (Homo sapiens, UniProt Q9H4B4); assay: DiscoveRx KinomeScan binding
T26 construct: purchased DiscoveRx scanEDGE panel

[29] = target: T27, PRKCE (Homo sapiens, UniProt Q02156); assay: DiscoveRx KinomeScan binding
T27 construct: purchased DiscoveRx scanEDGE panel

[30] = target: T28, RAF1 (Homo sapiens, UniProt P04049); assay: DiscoveRx KinomeScan binding
T28 construct: purchased DiscoveRx scanEDGE panel

[31] = target: T29, RSK2(Kin.Dom.1---N---terminal) (Homo sapiens, UniProt P51812); assay: DiscoveRx KinomeScan binding; details: Entrez RPS6KA3
T29 construct: RSK2(Kin.Dom.1---N---terminal); purchased DiscoveRx scanEDGE panel

[32] = target: T30, SNARK (Homo sapiens, UniProt Q9H093); assay: DiscoveRx KinomeScan binding; details: Entrez NUAK2
T30 construct: purchased DiscoveRx scanEDGE panel

[33] = target: T31, SRC (Homo sapiens, UniProt P12931); assay: DiscoveRx KinomeScan binding
T31 construct: purchased DiscoveRx scanEDGE panel

[34] = target: T32, SRPK3 (Homo sapiens, UniProt Q9UPE1); assay: DiscoveRx KinomeScan binding
T32 construct: purchased DiscoveRx scanEDGE panel

[35] = target: T33, TRKA (Homo sapiens, UniProt P04629); assay: DiscoveRx KinomeScan binding; details: Entrez NTRK1
T33 construct: purchased DiscoveRx scanEDGE panel

[36] = target: T34, VEGFR2 (Homo sapiens, UniProt P35968); assay: DiscoveRx KinomeScan binding; details: Entrez KDR
T34 construct: purchased DiscoveRx scanEDGE panel

[37] = target: T35, YANK3 (Homo sapiens, UniProt Q86UX6); assay: DiscoveRx KinomeScan binding; details: Entrez STK32C
T35 construct: purchased DiscoveRx (KinomeScan scanEDGE panel service)

T23 sequence (P42336 whole entry): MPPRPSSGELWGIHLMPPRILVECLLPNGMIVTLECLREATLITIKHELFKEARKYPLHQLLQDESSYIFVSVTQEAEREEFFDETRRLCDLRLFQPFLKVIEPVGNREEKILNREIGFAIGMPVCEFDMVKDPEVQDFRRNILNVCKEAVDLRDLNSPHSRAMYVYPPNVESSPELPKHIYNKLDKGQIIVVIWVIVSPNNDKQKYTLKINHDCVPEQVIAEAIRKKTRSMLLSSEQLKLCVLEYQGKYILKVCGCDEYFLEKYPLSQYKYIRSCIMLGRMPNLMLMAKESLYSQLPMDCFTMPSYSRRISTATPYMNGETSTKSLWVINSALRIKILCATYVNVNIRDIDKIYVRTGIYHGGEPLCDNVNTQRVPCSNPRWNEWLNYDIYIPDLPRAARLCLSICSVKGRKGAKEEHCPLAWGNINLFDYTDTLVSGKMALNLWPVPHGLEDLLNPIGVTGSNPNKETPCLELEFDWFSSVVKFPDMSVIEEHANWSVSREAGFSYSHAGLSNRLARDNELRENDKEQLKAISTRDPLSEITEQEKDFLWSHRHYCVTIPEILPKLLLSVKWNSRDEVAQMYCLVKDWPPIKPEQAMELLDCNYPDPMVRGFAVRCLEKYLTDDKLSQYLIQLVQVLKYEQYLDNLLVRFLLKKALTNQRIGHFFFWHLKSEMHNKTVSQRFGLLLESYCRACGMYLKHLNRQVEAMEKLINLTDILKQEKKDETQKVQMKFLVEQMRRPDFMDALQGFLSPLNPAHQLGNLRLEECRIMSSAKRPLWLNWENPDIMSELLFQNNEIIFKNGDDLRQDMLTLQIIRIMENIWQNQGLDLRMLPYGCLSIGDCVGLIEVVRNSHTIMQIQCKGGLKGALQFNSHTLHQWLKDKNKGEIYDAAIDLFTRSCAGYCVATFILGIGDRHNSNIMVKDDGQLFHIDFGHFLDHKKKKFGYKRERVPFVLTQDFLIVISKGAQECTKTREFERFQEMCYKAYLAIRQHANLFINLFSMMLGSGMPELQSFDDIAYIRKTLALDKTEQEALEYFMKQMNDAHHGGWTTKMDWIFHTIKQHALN
T21 sequence (Q13153 whole entry): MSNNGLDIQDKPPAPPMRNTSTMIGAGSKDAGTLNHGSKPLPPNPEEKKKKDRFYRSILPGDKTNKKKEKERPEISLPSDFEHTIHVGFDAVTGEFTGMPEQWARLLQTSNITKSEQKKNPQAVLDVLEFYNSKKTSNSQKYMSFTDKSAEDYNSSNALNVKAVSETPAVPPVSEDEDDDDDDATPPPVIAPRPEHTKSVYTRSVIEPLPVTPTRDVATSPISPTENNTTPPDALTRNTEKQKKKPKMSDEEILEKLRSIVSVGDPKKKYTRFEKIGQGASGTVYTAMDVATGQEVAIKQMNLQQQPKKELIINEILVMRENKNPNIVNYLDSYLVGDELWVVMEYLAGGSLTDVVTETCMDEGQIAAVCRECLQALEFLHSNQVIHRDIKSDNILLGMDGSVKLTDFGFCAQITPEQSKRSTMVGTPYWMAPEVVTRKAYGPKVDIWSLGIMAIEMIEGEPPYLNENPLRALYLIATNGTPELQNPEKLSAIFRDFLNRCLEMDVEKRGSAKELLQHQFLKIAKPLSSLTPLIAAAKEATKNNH
T22 sequence (Q00536 whole entry): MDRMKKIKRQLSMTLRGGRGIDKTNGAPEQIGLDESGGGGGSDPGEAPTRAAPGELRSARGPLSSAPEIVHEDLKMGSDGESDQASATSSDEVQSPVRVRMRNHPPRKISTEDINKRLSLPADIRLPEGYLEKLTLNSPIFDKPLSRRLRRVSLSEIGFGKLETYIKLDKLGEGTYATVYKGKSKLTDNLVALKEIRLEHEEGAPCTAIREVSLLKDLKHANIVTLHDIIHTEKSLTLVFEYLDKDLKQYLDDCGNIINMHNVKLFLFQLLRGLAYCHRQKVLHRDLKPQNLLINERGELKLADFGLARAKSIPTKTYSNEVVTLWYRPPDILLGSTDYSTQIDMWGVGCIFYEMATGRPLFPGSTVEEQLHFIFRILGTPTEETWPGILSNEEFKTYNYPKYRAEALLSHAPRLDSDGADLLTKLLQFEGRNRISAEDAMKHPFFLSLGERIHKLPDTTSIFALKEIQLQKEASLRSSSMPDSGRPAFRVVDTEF
T6 sequence (O14757 whole entry): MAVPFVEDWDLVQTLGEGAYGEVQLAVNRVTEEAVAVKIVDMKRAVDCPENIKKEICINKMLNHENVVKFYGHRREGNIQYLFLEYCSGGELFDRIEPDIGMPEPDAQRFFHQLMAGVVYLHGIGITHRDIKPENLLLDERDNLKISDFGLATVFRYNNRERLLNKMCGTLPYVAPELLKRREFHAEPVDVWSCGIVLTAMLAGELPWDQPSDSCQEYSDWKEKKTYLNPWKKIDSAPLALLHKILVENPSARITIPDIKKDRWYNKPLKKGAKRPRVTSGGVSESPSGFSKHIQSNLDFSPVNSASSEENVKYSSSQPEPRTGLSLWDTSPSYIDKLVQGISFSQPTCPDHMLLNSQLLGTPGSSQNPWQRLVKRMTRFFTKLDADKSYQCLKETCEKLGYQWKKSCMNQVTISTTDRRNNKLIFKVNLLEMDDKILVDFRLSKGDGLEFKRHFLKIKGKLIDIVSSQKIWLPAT
T5 sequence (P50750 whole entry): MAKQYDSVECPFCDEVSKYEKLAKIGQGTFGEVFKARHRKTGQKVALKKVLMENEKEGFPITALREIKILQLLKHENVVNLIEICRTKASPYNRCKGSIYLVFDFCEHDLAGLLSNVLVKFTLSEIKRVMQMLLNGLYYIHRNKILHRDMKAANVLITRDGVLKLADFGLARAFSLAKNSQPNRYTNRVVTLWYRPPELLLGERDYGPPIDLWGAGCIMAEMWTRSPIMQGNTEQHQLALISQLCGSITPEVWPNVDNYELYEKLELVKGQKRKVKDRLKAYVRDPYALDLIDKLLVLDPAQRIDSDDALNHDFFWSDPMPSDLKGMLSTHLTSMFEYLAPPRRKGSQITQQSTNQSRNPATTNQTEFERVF
T26 sequence (Q9H4B4 whole entry): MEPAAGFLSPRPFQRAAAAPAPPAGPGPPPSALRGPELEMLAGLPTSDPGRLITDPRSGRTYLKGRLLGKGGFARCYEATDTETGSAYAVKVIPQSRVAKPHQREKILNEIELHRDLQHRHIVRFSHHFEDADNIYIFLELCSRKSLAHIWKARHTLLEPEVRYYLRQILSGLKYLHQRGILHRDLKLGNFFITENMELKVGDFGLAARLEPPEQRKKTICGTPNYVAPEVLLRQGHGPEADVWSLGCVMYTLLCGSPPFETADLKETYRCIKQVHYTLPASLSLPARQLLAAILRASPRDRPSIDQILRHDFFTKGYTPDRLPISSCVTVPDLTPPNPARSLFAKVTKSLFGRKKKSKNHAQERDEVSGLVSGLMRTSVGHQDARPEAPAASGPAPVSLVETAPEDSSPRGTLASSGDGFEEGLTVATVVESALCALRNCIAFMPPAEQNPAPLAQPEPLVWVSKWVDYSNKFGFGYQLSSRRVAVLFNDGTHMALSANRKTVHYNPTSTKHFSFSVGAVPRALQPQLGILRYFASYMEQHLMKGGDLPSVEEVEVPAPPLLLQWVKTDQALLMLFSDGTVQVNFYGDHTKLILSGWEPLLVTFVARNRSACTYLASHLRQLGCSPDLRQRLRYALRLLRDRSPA
T13 sequence (P08069 31-1367): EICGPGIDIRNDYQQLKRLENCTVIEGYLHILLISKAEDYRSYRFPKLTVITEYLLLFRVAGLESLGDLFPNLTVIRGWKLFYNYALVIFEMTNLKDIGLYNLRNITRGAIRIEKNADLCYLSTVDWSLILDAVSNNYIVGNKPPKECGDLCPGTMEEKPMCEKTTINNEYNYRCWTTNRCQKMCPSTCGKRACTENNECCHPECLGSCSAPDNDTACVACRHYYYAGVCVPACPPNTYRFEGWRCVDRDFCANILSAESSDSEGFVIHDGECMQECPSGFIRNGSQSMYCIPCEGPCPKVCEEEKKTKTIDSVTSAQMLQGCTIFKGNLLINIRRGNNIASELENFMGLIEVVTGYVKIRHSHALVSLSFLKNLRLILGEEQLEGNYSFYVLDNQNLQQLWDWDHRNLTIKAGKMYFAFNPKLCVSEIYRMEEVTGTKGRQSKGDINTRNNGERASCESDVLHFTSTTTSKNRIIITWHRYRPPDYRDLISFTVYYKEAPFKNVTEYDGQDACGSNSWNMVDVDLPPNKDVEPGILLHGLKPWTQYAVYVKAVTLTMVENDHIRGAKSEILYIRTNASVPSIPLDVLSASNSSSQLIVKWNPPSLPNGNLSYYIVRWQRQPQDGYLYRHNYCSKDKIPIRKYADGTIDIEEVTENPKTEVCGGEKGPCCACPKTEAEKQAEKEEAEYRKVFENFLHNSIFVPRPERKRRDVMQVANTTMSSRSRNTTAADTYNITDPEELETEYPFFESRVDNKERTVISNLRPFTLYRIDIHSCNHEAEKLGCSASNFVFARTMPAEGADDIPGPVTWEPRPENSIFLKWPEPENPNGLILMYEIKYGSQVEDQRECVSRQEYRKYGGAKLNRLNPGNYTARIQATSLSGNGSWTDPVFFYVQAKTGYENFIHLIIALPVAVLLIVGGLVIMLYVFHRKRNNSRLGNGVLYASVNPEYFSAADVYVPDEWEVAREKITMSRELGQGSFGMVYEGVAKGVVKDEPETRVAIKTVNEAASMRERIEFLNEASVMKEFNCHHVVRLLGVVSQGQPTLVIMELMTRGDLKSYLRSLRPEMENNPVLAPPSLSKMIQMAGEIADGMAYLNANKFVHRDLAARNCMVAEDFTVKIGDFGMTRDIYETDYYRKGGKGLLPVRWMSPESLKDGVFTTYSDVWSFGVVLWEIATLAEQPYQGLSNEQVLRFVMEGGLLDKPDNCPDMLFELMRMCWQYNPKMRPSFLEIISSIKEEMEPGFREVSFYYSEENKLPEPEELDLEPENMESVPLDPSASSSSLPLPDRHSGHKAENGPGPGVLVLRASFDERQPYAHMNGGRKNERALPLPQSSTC

## COc1ccc(NC(=O)Nc2ccc3c(c2)C(=O)N([C@@H](C)CO)C[C@H](C)[C@H](CN(C)Cc2ccc4c(c2)OCO4)O3)cc1 [BRD-7880]
[1]
  significant inhibition (defined as activity<25% control) across 308 kinases: inhibited aurora kinase B
[2]
  phosphorylation of serine 10 on histone H3: decrease phosphorylation of serine 10 on histone H3
[3]
  Percent Control: 44%
[4]
  Percent Control: 100%
[5]
  Percent Control: 43%
[6]
  Percent Control: 77%
[7]
  Percent Control: 90%
[8]
  Percent Control: 100%
[9]
  Percent Control: 100%
[10]
  Percent Control: 60%
[11]
  Percent Control: 100%
[12]
  Percent Control: 92%
[13]
  Percent Control: 77%
[14]
  Percent Control: 94%
[15]
  Percent Control: 88%
[16]
  Percent Control: 68%
[17]
  Percent Control: 98%
[18]
  Percent Control: 91%
[19]
  Percent Control: 77%
[20]
  Percent Control: 39%
[21]
  Percent Control: 71%
[22]
  Percent Control: 100%
[23]
  Percent Control: 77%
[24]
  Percent Control: 95%
[25]
  Percent Control: 74%
[26]
  Percent Control: 100%
[27]
  Percent Control: 85%
[28]
  Percent Control: 48%
[29]
  Percent Control: 100%
[30]
  Percent Control: 100%
[31]
  Percent Control: 80%
[32]
  Percent Control: 72%
[33]
  Percent Control: 81%
[34]
  Percent Control: 100%
[35]
  Percent Control: 84%
[36]
  Percent Control: 100%
[37]
  Percent Control: 91%
